Measurements reported in paper PMC7456513 (ACS infectious diseases, 2020).
Where two headings read alike, the source gives them in different places.

What was measured:
Test in all cases: tryptophan fluorescence quenching titration
Type in all cases: binding
[1] = target: T1, HasAp (Pseudomonas aeruginosa, UniProt G3XD33); conditions: read-out: KD (nM, ± SD)
[2] = target: T1, HasAp; conditions: read-out: KD (nM, ± SD); remark: listed apart in the source
[3] = target: T1, HasAp

SMILES	Kd [2] [nM]	other results
C1=[N+]2c3ccccc3[N+]3=Cc4ccccc4[O][Ga-]23[O]c2ccccc21 [GaSal]	–	Kd [1]: 2050 ± 280 nM
C1=[N+]2c3ccccc3[N+]3=Cc4ccccc4[O][Fe-]23[O]c2ccccc21 [FeSal]	1050 ± 100	–
C=CC1=C(C)C2=Cc3c(C=C)c(C)c4[n]3[Fe][n]3c(c(C)c(CCC(=O)O)c3=CC3=NC(=C4)C(C)=C3CCC(=O)O)=CC1=N2 [heme]	–	Kd [3]: 350 ± 50 nM
C=CC1=C(C)C2=[N+]3C1=Cc1c(C)c(C=C)c4[n]1[Ga-]31[n]3c(c(C)c(CCC(=O)O)c3=CC3=[N+]1C(=C4)C(C)=C3CCC(=O)O)=C2 (stereo not shown) [GaPPIX]	280 ± 30	–
